From article PMC8080530, “Glucocorticoid receptor Thr524 phosphorylation by MINK1 induces interactions with 14-3-3 protein regulators” (The Journal of Biological Chemistry, 2021) come the findings set out here.

Non-standard residues stand in square brackets, D forms with d. Residues, ends and D or L forms follow the SMILES beside them. pT = C[C@@H](OP(=O)(O)O)[C@H](N)C(=O)O; pS = N[C@@H](COP(=O)(O)O)C(=O)O

One experiment deals with T1, 14-3-3ζ (Homo sapiens, UniProt P63104).
T1 construct: Full-length expression and purification of 14-3-3; made in house; host or cells: E. coli BL21 (DE3)STAR
T1 sequence (P63104 1-245): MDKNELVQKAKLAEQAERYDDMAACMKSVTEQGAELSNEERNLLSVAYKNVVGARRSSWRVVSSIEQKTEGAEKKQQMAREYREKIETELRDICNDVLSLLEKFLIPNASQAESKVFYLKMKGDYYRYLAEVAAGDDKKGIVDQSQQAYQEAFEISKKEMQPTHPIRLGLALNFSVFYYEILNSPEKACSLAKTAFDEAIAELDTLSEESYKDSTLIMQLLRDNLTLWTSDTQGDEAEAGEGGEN
Nature of the experiment: FP assay with GR phosphorylated peptides and 14-3-3ζ. Conditions: FP, doubly phosphorylated 31-mer peptides, triplicates; read-out: Kd with 14-3-3ζ (values in nM). It is filed as binding. The method, then: After 30-min incubation at RT, the plates were read on a plate reader PHERAstar (BMG LABTECH GmbH) for FP signal using […] and standard excitation (485 nm) and emission (520 nm). Measurements were performed as triplicates. Binding data were fit to a standard Hill equation using the software Genedata Screener. The figures were made using the software GraphPad Prism 8. FP data were expressed as millipolarization (mP) units, and the dynamic range (ΔmP) was the difference of the signals from the bound peptide and free peptide. Errors are the standard error of the fit.
Consider `CC[C@H](C)[C@H](NC(=O)[C@@H](NC(=O)[C@H](C)N)[C@@H](C)O)C(=O)N[C@H](C(=O)N1CCC[C@H]1C(=O)N[C@@H](C)C(=O)N[C@H](C(=O)N[C@@H](CC(C)C)C(=O)N1CCC[C@H]1C(=O)N[C@@H](CCC(N)=O)C(=O)N[C@@H](CC(C)C)C(=O)N[C@H](C(=O)N1CCC[C@H]1C(=O)NCC(=O)NCC(=O)NCC(=O)NCC(=O)NCC(=O)N[C@@H](CCCNC(=N)N)C(=O)N[C@@H](CO)C(=O)N[C@@H](Cc1ccc(O)cc1)C(=O)N[C@@H](CCCNC(=N)N)C(=O)N[C@@H](CCC(N)=O)C(=O)N[C@@H](CO)C(=O)N[C@@H](COP(=O)(O)O)C(=O)N[C@@H](C)C(=O)N[C@@H](CC(N)=O)C(=O)N[C@@H](CC(C)C)C(=O)N[C@@H](CC(C)C)C(=O)N[C@@H](CS)C(=O)N[C@@H](Cc1ccccc1)C(=O)O)[C@@H](C)O)[C@@H](C)OP(=O)(O)O)C(C)C` [GR_K518A] (H-ATIVPA[pT]LPQLTPGGGGGRSYRQS[pS]ANLLCF-OH), for which the Kd came to 110 nM.

The same experiment, now with this note: read-out: PKd with 14-3-3ζ (converted).
In the case of `CC[C@H](C)[C@H](NC(=O)[C@@H](NC(=O)[C@@H](N)CCCCN)[C@@H](C)O)C(=O)N[C@H](C(=O)N1CCC[C@H]1C(=O)N[C@@H](C)C(=O)N[C@H](C(=O)N[C@@H](CC(C)C)C(=O)N1CCC[C@H]1C(=O)N[C@@H](CCC(N)=O)C(=O)N[C@@H](CC(C)C)C(=O)N[C@H](C(=O)N1CCC[C@H]1C(=O)NCC(=O)NCC(=O)NCC(=O)NCC(=O)NCC(=O)N[C@@H](CCCNC(=N)N)C(=O)N[C@@H](CO)C(=O)N[C@@H](Cc1ccc(O)cc1)C(=O)N[C@@H](CCCNC(=N)N)C(=O)N[C@@H](CCC(N)=O)C(=O)N[C@@H](CO)C(=O)N[C@@H](COP(=O)(O)O)C(=O)N[C@@H](C)C(=O)N[C@@H](CC(N)=O)C(=O)N[C@@H](CC(C)C)C(=O)N[C@@H](CC(C)C)C(=O)N[C@@H](C)C(=O)N[C@@H](Cc1ccccc1)C(=O)O)[C@@H](C)O)[C@@H](C)OP(=O)(O)O)C(C)C` [GR_C622A] (H-KTIVPA[pT]LPQLTPGGGGGRSYRQS[pS]ANLLAF-OH), the Kd is 63.1 nM.

As to `CC[C@H](C)[C@H](NC(=O)[C@@H](NC(=O)[C@@H](N)CCCCN)[C@@H](C)O)C(=O)N[C@H](C(=O)N1CCC[C@H]1C(=O)N[C@@H](C)C(=O)N[C@H](C(=O)N[C@@H](CC(C)C)C(=O)N1CCC[C@H]1C(=O)N[C@@H](CCC(N)=O)C(=O)N[C@@H](CC(C)C)C(=O)N[C@H](C(=O)N1CCC[C@H]1C(=O)NCC(=O)NCC(=O)NCC(=O)NCC(=O)NCC(=O)N[C@@H](CCCNC(=N)N)C(=O)N[C@@H](CO)C(=O)N[C@@H](Cc1ccc(O)cc1)C(=O)N[C@@H](CCCNC(=N)N)C(=O)N[C@@H](CCC(N)=O)C(=O)N[C@@H](CO)C(=O)N[C@@H](COP(=O)(O)O)C(=O)N[C@@H](C)C(=O)N[C@@H](CC(N)=O)C(=O)N[C@@H](CC(C)C)C(=O)N[C@@H](CC(C)C)C(=O)N[C@@H](CS)C(=O)N[C@@H](C)C(=O)O)[C@@H](C)O)[C@@H](C)OP(=O)(O)O)C(C)C` [GR_F623A] (H-KTIVPA[pT]LPQLTPGGGGGRSYRQS[pS]ANLLCA-OH), the Kd is 50.1 nM.

With `CC(C)C[C@H](NC(=O)[C@H](CC(N)=O)NC(=O)[C@H](C)NC(=O)[C@H](COP(=O)(O)O)NC(=O)[C@H](CO)NC(=O)[C@H](CCC(N)=O)NC(=O)[C@H](CCCNC(=N)N)NC(=O)[C@H](Cc1ccc(O)cc1)NC(=O)[C@H](CO)NC(=O)[C@H](CCCNC(=N)N)NC(=O)CNC(=O)CNC(=O)CNC(=O)CNC(=O)CNC(=O)[C@@H]1CCCN1C(=O)[C@@H](NC(=O)[C@H](CC(C)C)NC(=O)[C@H](CCC(N)=O)NC(=O)[C@@H]1CCCN1C(=O)[C@H](CC(C)C)NC(=O)[C@@H](NC(=O)[C@H](C)NC(=O)[C@@H]1CCCN1C(=O)[C@@H](NC(=O)[C@H](C)NC(=O)[C@@H](NC(=O)[C@@H](N)CCCCN)[C@@H](C)O)C(C)C)[C@@H](C)OP(=O)(O)O)[C@@H](C)O)C(=O)N[C@@H](CC(C)C)C(=O)N[C@@H](CS)C(=O)N[C@@H](Cc1ccccc1)C(=O)O` [GR_I520A] (H-KTAVPA[pT]LPQLTPGGGGGRSYRQS[pS]ANLLCF-OH), the Kd is 50.1 nM.

On to `CC[C@H](C)[C@H](NC(=O)[C@@H](NC(=O)[C@@H](N)CCCCN)[C@@H](C)O)C(=O)N[C@H](C(=O)N1CCC[C@H]1C(=O)N[C@@H](C)C(=O)N[C@H](C(=O)N[C@@H](C)C(=O)N1CCC[C@H]1C(=O)N[C@@H](CCC(N)=O)C(=O)N[C@@H](CC(C)C)C(=O)N[C@H](C(=O)N1CCC[C@H]1C(=O)NCC(=O)NCC(=O)NCC(=O)NCC(=O)NCC(=O)N[C@@H](CCCNC(=N)N)C(=O)N[C@@H](CO)C(=O)N[C@@H](Cc1ccc(O)cc1)C(=O)N[C@@H](CCCNC(=N)N)C(=O)N[C@@H](CCC(N)=O)C(=O)N[C@@H](CO)C(=O)N[C@@H](COP(=O)(O)O)C(=O)N[C@@H](C)C(=O)N[C@@H](CC(N)=O)C(=O)N[C@@H](CC(C)C)C(=O)N[C@@H](CC(C)C)C(=O)N[C@@H](CS)C(=O)N[C@@H](Cc1ccccc1)C(=O)O)[C@@H](C)O)[C@@H](C)OP(=O)(O)O)C(C)C` [GR_L525A] (H-KTIVPA[pT]APQLTPGGGGGRSYRQS[pS]ANLLCF-OH), for which the Kd is 63.1 nM.

`CC[C@H](C)[C@H](NC(=O)[C@@H](NC(=O)[C@@H](N)CCCCN)[C@@H](C)O)C(=O)N[C@H](C(=O)N1CCC[C@H]1C(=O)N[C@@H](C)C(=O)N[C@H](C(=O)N[C@@H](CC(C)C)C(=O)N1CCC[C@H]1C(=O)N[C@@H](CCC(N)=O)C(=O)N[C@@H](C)C(=O)N[C@H](C(=O)N1CCC[C@H]1C(=O)NCC(=O)NCC(=O)NCC(=O)NCC(=O)NCC(=O)N[C@@H](CCCNC(=N)N)C(=O)N[C@@H](CO)C(=O)N[C@@H](Cc1ccc(O)cc1)C(=O)N[C@@H](CCCNC(=N)N)C(=O)N[C@@H](CCC(N)=O)C(=O)N[C@@H](CO)C(=O)N[C@@H](COP(=O)(O)O)C(=O)N[C@@H](C)C(=O)N[C@@H](CC(N)=O)C(=O)N[C@@H](CC(C)C)C(=O)N[C@@H](CC(C)C)C(=O)N[C@@H](CS)C(=O)N[C@@H](Cc1ccccc1)C(=O)O)[C@@H](C)O)[C@@H](C)OP(=O)(O)O)C(C)C` [GR_L528A] (H-KTIVPA[pT]LPQATPGGGGGRSYRQS[pS]ANLLCF-OH): the Kd was 50.1 nM.

Consider `CC[C@H](C)[C@H](NC(=O)[C@@H](NC(=O)[C@@H](N)CCCCN)[C@@H](C)O)C(=O)N[C@H](C(=O)N1CCC[C@H]1C(=O)N[C@@H](C)C(=O)N[C@H](C(=O)N[C@@H](CC(C)C)C(=O)N1CCC[C@H]1C(=O)N[C@@H](CCC(N)=O)C(=O)N[C@@H](CC(C)C)C(=O)N[C@H](C(=O)N1CCC[C@H]1C(=O)NCC(=O)NCC(=O)NCC(=O)NCC(=O)NCC(=O)N[C@@H](CCCNC(=N)N)C(=O)N[C@@H](CO)C(=O)N[C@@H](Cc1ccc(O)cc1)C(=O)N[C@@H](CCCNC(=N)N)C(=O)N[C@@H](CCC(N)=O)C(=O)N[C@@H](CO)C(=O)N[C@@H](COP(=O)(O)O)C(=O)N[C@@H](C)C(=O)N[C@@H](CC(N)=O)C(=O)N[C@@H](C)C(=O)N[C@@H](CC(C)C)C(=O)N[C@@H](CS)C(=O)N[C@@H](Cc1ccccc1)C(=O)O)[C@@H](C)O)[C@@H](C)OP(=O)(O)O)C(C)C` [GR_L620A] (H-KTIVPA[pT]LPQLTPGGGGGRSYRQS[pS]ANALCF-OH), for which the Kd was 50.1 nM.

Regarding `CC[C@H](C)[C@H](NC(=O)[C@@H](NC(=O)[C@@H](N)CCCCN)[C@@H](C)O)C(=O)N[C@H](C(=O)N1CCC[C@H]1C(=O)N[C@@H](C)C(=O)N[C@H](C(=O)N[C@@H](CC(C)C)C(=O)N1CCC[C@H]1C(=O)N[C@@H](CCC(N)=O)C(=O)N[C@@H](CC(C)C)C(=O)N[C@H](C(=O)N1CCC[C@H]1C(=O)NCC(=O)NCC(=O)NCC(=O)NCC(=O)NCC(=O)N[C@@H](CCCNC(=N)N)C(=O)N[C@@H](CO)C(=O)N[C@@H](Cc1ccc(O)cc1)C(=O)N[C@@H](CCCNC(=N)N)C(=O)N[C@@H](CCC(N)=O)C(=O)N[C@@H](CO)C(=O)N[C@@H](COP(=O)(O)O)C(=O)N[C@@H](C)C(=O)N[C@@H](CC(N)=O)C(=O)N[C@@H](CC(C)C)C(=O)N[C@@H](C)C(=O)N[C@@H](CS)C(=O)N[C@@H](Cc1ccccc1)C(=O)O)[C@@H](C)O)[C@@H](C)OP(=O)(O)O)C(C)C` [GR_L621A] (H-KTIVPA[pT]LPQLTPGGGGGRSYRQS[pS]ANLACF-OH), the Kd is 39.8 nM.

With `CC[C@H](C)[C@H](NC(=O)[C@@H](NC(=O)[C@@H](N)CCCCN)[C@@H](C)O)C(=O)N[C@H](C(=O)N1CCC[C@H]1C(=O)N[C@@H](C)C(=O)N[C@H](C(=O)N[C@@H](CC(C)C)C(=O)N1CCC[C@H]1C(=O)N[C@@H](CCC(N)=O)C(=O)N[C@@H](CC(C)C)C(=O)N[C@H](C(=O)N1CCC[C@H]1C(=O)NCC(=O)NCC(=O)NCC(=O)NCC(=O)NCC(=O)N[C@@H](CCCNC(=N)N)C(=O)N[C@@H](CO)C(=O)N[C@@H](Cc1ccc(O)cc1)C(=O)N[C@@H](CCCNC(=N)N)C(=O)N[C@@H](CCC(N)=O)C(=O)N[C@@H](CO)C(=O)N[C@@H](COP(=O)(O)O)C(=O)N[C@@H](C)C(=O)N[C@@H](C)C(=O)N[C@@H](CC(C)C)C(=O)N[C@@H](CC(C)C)C(=O)N[C@@H](CS)C(=O)N[C@@H](Cc1ccccc1)C(=O)O)[C@@H](C)O)[C@@H](C)OP(=O)(O)O)C(C)C` [GR_N619A] (H-KTIVPA[pT]LPQLTPGGGGGRSYRQS[pS]AALLCF-OH), the Kd is 39.8 nM.
